{"source": "patent US20150216865A1", "about": "“METHODS OF TREATING A BRUTON'S TYROSINE KINASE DISEASE OR DISORDER” (Celgene Avilomics Research, Inc., priority 2012, published 2015)", "key": {"[1]": {"experiment": "NOD mouse model of Sjogren's syndrome, bodyweight", "format": "in vivo", "protocol": "Non-Obese Diabetic Mouse (NOD) Model of Sjogren's Syndrome. Male Non Obese Diabetic (NOD) mice from the KWS BioTest NOD colony and male BALB/c mice were randomly allocated to experimental groups and allowed to acclimatise for one week prior to the beginning of the study. From six weeks of age, animals were treated according to the administration schedule in Table 5, below. Each group consisted of n=12 animals. The administration volume was 15 ml/kg from 6-12 weeks of age. The administration volume was then decreased to 10 ml/kg from 13-20 weeks of age. The vehicle was distilled water pH 3.0-3.5 for Group 7. […] Animals were weighed at the start of the study (Day 0) and once per week until termination. […] Bodyweight data, expressed in grams, were analysed by two-way ANOVA followed by Dunnett's post-test for multiple comparisons to the vehicle-treated group and presented as mean bodyweights for each group (FIG. 12). Bodyweight data, expressed as a percentage of the initial bodyweight, were analysed by two-way ANOVA followed by Dunnett's post-test for multiple comparisons to the vehicle-treated group and presented as mean percentage of the initial bodyweight ±SEM (FIG. 13)."}, "male NOD mice": {"tested_on": "male NOD mice", "experiment": "NOD mouse model, salivary gland histopathology", "format": "in vivo", "conditions": "20 weeks of age", "excerpt": "Histopathology. Samples of lachrymal gland and salivary glands from all animals were fixed for Haematoxylin & Eosin histological analysis. Sections were inspected blind by a qualified histopathologist and scored for signs of pathology according to a semi-quantitative scoring system. This system is based on the mean number of inflammatory foci comprising 50 or more mononuclear inflammatory cells per objective field. The ratio of infiltrated to normal glandular tissue was expressed on a five point scale.\n(i) Focus Score. The mean number of inflammatory foci comprising ≧50 mononuclear inflammatory cells per ×10 objective field was counted. Five such fields were assessed (where possible) to derive this index and these are selected to contain the maximum number of such foci. Where the overall area of the tissue section was less than five fields, the number of ×10 objective fields was recorded and used to determine the focus score. (ii) Area Score. The ratio of infiltrated to normal glandular tissue was expressed on a five point scale: • 0: No infiltrates • 1: 0-25% of the tissue section infiltrated • 2: 26-50% of the tissue section infiltrated • 3: 51-75% of the tissue section infiltrated • 4: 76-100% of the tissue section infiltrated\nSalivary Gland Histopathology. […] Sections were examined and scored for two criteria: Focus Score and Area Score as outlined above."}, "Solubility": {"experiment": "Solubility", "format": "physicochemical"}, "Btk": {"target": "T1, Btk (Mus musculus, UniProt P35991)", "T1 construct": "from tissue; host or cells: mouse spleen", "T1 sequence (P35991 whole entry)": "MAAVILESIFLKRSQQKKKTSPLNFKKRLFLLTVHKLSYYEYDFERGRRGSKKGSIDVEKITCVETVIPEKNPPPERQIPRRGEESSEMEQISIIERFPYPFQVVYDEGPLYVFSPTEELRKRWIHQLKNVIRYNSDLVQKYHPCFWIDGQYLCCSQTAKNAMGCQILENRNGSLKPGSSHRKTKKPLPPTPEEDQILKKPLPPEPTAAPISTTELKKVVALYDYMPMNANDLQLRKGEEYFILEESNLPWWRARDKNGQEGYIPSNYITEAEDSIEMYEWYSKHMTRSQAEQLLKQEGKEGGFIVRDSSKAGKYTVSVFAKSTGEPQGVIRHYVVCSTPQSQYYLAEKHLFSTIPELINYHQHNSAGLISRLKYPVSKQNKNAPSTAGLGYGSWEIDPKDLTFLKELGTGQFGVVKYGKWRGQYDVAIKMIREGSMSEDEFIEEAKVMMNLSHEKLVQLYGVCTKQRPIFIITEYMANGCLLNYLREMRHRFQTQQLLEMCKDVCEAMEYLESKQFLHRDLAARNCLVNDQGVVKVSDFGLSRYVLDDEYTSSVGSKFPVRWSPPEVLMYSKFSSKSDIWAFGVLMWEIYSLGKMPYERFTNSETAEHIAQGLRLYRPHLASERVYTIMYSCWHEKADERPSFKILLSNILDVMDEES", "experiment": "Btk occupancy in spleen lysates of CIA mice", "format": "in vivo", "protocol": "Spleen Homogenization: Spleens were harvested from mice, frozen immediately in liquid nitrogen and stored at −80° C. To generate spleen lysates, each spleen was sliced in half and lysed using a Precellys 24 Bead Homogenizer in 500 μL of BioRad Bio-Plex Lysis Buffer plus protease inhibitors. Supernatant was transferred to a fresh microfuge tube and stored frozen at −80° C. until analysis.\nBtk Target Site Occupancy ELISA: An ELISA method for the detection of free uninhibited Btk in mouse, rat, dog, monkey, and human lysates was developed at Celgene Avilomics Research and a validation of this method in human B cell lysate was performed by a CLIA Certified laboratory (Cambridge Biomedical Laboratories, Boston, Mass.) The parameters that were assessed included: accuracy, linearity, dilution, precision (intra and inter-assay), stability, reference range, freeze-thaw cycles, reportable range, specificity, sensitivity, and carryover. […] Standards and samples were transferred to a streptavidin-coated 96-well ELISA plate and mixed while shaking for 1 h at room temperature. […] After wash, goat α-mouse-HRP (1:5000 dilution in PBS+0.05% Tween-20+0.5% BSA) was added and incubated for 1 h at room temperature. The ELISA was developed with addition of tetramethyl benzidine (TMB) followed by Stop Solution and read at OD 450 nm.\nEstablished Collagen Induced Arthritis Model: Experiments were carried out at Bolder Biopath, Boulder, Colo. All experiments were carried out in compliance with regulations of the Institutional Animal Care and Use Committee and were conducted in accordance with principles and procedures dictated by the highest standards of humane animal care. Dba1 mice were injected at the base of the tail with 150 μL of Freund's Complete Adjuvant (Sigma) containing bovine type II collagen (Elastin Products, Owensville, Mo.) (2 mg/ml) on day 0 and again on day 21. […] Randomization into each group was done after swelling was obviously established in at least one paw, and attempts were made to assure approximately equal mean scores across the groups at the time of enrollment. […] Treatment continued daily (QD at 24 h intervals) through arthritis day 14. […] Clinical scores were assessed for each of the paws on study arthritis days 1-15 using the following scoring system: 0=normal, 1=one hind or fore paw joint affected or minimal diffuse erythema and swelling, 2=two hind or fore paw joints affected or mild diffuse erythema and swelling, 3=three hind or fore paw joints affected or moderate diffuse erythema and swelling, 4=marked diffuse erythema and swelling or =four digit joints affected, 5=severe diffuse erythema and severe swelling entire paw, unable to flex digits."}}, "note": "Read-outs that look alike come from different tables or passages of the source.", "data": [{"smiles": "C=CC(=O)Nc1cccc(Nc2nc(Nc3ccc(OCCOC)cc3)ncc2F)c1", "note": "[Compound 1 besylate, N-(3-(5-fluoro-2-(4-(2-methoxyethoxyl)phenylamino)pyrimidin-4-ylamino)phenyl)acrylamide besylate]", "values": [{"measurement": "bodyweight gain (% of initial bodyweight) vs vehicle-treated group", "setting": "[1]; 10 mg/kg SID, 8 weeks and 10 to 20 weeks of age", "result": "significant reduction in bodyweight gain"}, {"measurement": "bodyweight (grams) vs vehicle-treated group", "setting": "[1]; 10 mg/kg SID, at 13, 17, 19 and 20 weeks of age", "result": "significant decrease in bodyweight"}, {"measurement": "bodyweight gain (% of initial bodyweight) vs vehicle-treated group", "setting": "[1]; 30 mg/kg SID, 11 to 20 weeks of age", "result": "significant reduction in bodyweight gain"}, {"measurement": "bodyweight (grams) vs vehicle-treated group", "setting": "[1]; 30 mg/kg SID, from 14 to 20 weeks of age", "result": "significant decrease in bodyweight"}, {"measurement": "bodyweight gain (% of initial bodyweight) vs vehicle-treated group", "setting": "[1]; 50 mg/kg twice daily, 10 to 20 weeks of age", "result": "significant reduction in bodyweight gain"}, {"measurement": "bodyweight (grams) vs vehicle-treated group", "setting": "[1]; 50 mg/kg twice daily, from 11 to 20 weeks of age", "result": "highly significant decrease in bodyweight"}, {"measurement": "bodyweight gain (% of initial bodyweight) vs vehicle-treated group", "setting": "[1]; 100 mg/kg SID, 8 weeks and 10 to 20 weeks of age", "result": "significant reduction in bodyweight gain"}, {"measurement": "bodyweight gain (% of initial bodyweight) vs vehicle-treated group", "setting": "[1]; ad libitum 0.16 mg/ml in drinking water, 8 to 20 weeks of age", "result": "highly significant reduction in bodyweight gain"}, {"measurement": "bodyweight (grams) vs vehicle-treated group", "setting": "[1]; ad libitum 0.16 mg/ml in drinking water, 8 weeks and 10 to 20 weeks of age", "result": "highly significant decrease in bodyweight"}, {"measurement": "salivary gland Area Score (proportion of infiltrated glandular tissue) vs vehicle", "setting": "male NOD mice", "result": "did not reduce"}, {"measurement": "salivary gland Focus Score (number of inflammatory foci) vs vehicle", "setting": "male NOD mice", "result": "did not reduce"}, {"measurement": "solubility", "setting": "Solubility; aqueous solution, aqueous buffer, approximately pH 3.0, read-out: maximum aqueous solubility", "result": 400, "unit": "µg/mL"}, {"measurement": "solubility", "setting": "Solubility; ethanol, organic solvent or mixture, read-out: solubility in ethanol", "result": "~10000", "unit": "µg/mL"}, {"measurement": "solubility", "setting": "Solubility; water, read-out: solubility in water", "result": "~160", "unit": "µg/mL"}, {"measurement": "Btk occupancy in spleen", "setting": "Btk; 30 mg/kg, 2 hours after last dose, besylate", "result": 95, "unit": "%"}, {"measurement": "drug-free Btk protein re-synthesized, % of pre-dose levels", "setting": "Btk; 24 hours after a 10 mg/kg dose", "result": "approximately 60%"}, {"measurement": "Btk occupancy in spleen", "setting": "Btk; 24 hours after the 3 mg dose", "result": 19, "unit": "%"}, {"measurement": "Btk occupancy in spleen", "setting": "Btk; 24 hours, dose level 10 mg", "result": "> 40", "unit": "%"}, {"measurement": "Btk occupancy in spleen", "setting": "Btk; 24 hours, dose level 30 mg", "result": "> 40", "unit": "%"}, {"measurement": "receptor occupancy at 3 mg/kg", "setting": "Btk; mouse, 3 mg/kg, 2 hours after last dose", "result": 34, "unit": "%"}, {"measurement": "receptor occupancy at 10 mg/kg", "setting": "Btk; mouse, 10 mg/kg, 2 hours after last dose", "result": 84, "unit": "%"}, {"measurement": "receptor occupancy at 30 mg/kg", "setting": "Btk; mouse, 30 mg/kg, 2 hours after last dose", "result": 97, "unit": "%"}]}]}
